According to patent publication EP0241395A2, “Sweeteners derived from n-phenylguanidinoacetic and n-phenylethananamidinacetic acids, and compositions containing such sweeteners” (UNIVERSITE CLAUDE BERNARD - LYON 1, priority 1986, dated 1987):

Tested on: groupe de huit goûteurs expérimentés
Test: Sweetening power judged by a panel of eight experienced tasters against a sucrose reference solution
Type: in vivo
Settings: weight basis; for Pouvoir édulcorant: Table II, relative to a 2 % sucrose solution; for pouvoir édulcorant, sur une base pondérale: approximate
Outline: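 Panel of eight experienced tasters compared aqueous solutions of compound at varying concentrations with a sucrose reference at 2 %, sometimes 5 % and 10 %. Sweetening power is the weight ratio of sucrose to compound at equal sweetness intensity, as judged by a majority of tasters, and depends on the reference concentration.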

[1] = by comparison with a 2 % sucrose solution

Row | SMILES | Pouvoir édulcorant | pouvoir édulcorant, sur une base pondérale [1] | pouvoir édulcorant, sur une base pondérale (by comparison with a 5 % sucrose solution) | pouvoir édulcorant, sur une base pondérale (by comparison with a 10 % sucrose solution)
1 | O=C(O)CNC(=Nc1ccc([N+](=O)[O-])cc1)NCC1CCCCC1 [Exemple 62, acide N-[N-cyclohexylméthylamino(4-nitrophénylimino)méthyl]-2-aminoéthanoïque] | 8000 | ~8 000 fois celui du saccharose | ~7 500 fois celui du saccharose | ~4 000 fois celui du saccharose
2 | C[C@H](NC(=Nc1cc(Cl)cc(Cl)c1)NCC(=O)O)C1CCCCC1 [Exemple 63, acide N-[N-(S)-l-cyclohexyléthylamino(3,5-dichlorophénylimino)méthyl]-2-aminoéthanoïque] | 70000 | ~70 000 fois celui du saccharose |  | 
3 | Cc1ccccc1N=C(NCC(=O)O)Nc1ccc(C#N)cc1 [Exemple 64, acide N-[N-(2-méthylphényl)amino (4-cyanophénylimino)méthyl]-2-aminoéthanoïque] | 5000 | ~5 000 fois celui du saccharose |  | 
4 | Cc1cccc(NC(=Nc2ccc(C#N)cc2)NCC(=O)O)c1 [Exemple 65, acide N-[N-(3-méthylphényl)amino(4-cyanophénylimino)méthyl]-2-aminoéthanoïque] | 9000 | ~9 000 fois celui du saccharose |  | 
5 | Cc1ccc(NC(=Nc2ccc(C#N)cc2)NCC(=O)O)cc1 [Exemple 66, acide N-[N-(4-méthylphényl)amino(4-cyanophénylimino)méthyl]--2-aminoéthanoïque] | 7000 | ~7 000 fois celui du saccharose |  | 
6 | CC1(NC(=Nc2ccc(C#N)cc2)NCC(=O)O)CCCCC1 [Exemple 67] | 100 | ~100 fois celui du saccharose |  | 
7 | O=C(O)CNC(=Nc1cccc2ccccc12)Nc1cc(Cl)cc(Cl)c1 [Exemple 68, acide N-[N-1-naphtylamino (3,5-dichlorophénylimino)méthyl]-2-aminoéthanoïque] | 30000 | ~30 000 fois celui du saccharose |  | 
8 | N#Cc1ccc(N=C(NCC(=O)O)Nc2cccc3ccccc23)cc1 [Exemple 69, acide N-[N-1-naphtylamino(4-cyanophénylimino)méthyl)-2-aminoéthanoïque] | 60000 | ~60 000 fois celui du saccharose |  | 
9 | N#Cc1ccc(N=C(NCC(=O)O)NC2CCc3ccccc32)cc1 (centres unmarked) [Exemple 70, acide N-[N-(1-indanyl)amino(4-cyanophénylimino)méthyl]-2-aminoéthanoïque] | 5000 | ~5 000 fois celui du saccharose |  | 
10 | N#Cc1ccc(N=C(NCC(=O)O)NC23CC4CC(CC(C4)C2)C3)cc1 [Exemple 71, acide N-[N-(1-adamantyl)amino(4-cyanophénylimine)méthyl]-2-8minoéthanoique] | 3 500 | ~3 500 fois celui du saccharose |  | 
11 | N#Cc1ccc(N=C(NCC(=O)O)NCC23CC4CC(CC(C4)C2)C3)cc1 [Exemple 72, acide N-[N-(l-adamantylméthyl)amino(4-cyanophénylimino)méthyl]-2-aminoéthanoïque] | 23000 | ~23 000 fois celui du saccharose |  | 
12 | N#CN=C(NCC(=O)O)Nc1cccc(Cl)c1 [Exemple 73, acide N-[cyanoimino(3-chlorophénylamino)méthyl]-2-aminoéthanoïque] | 80 | ~80 fois celui du saccharose |  | 
